Results reported in patent US20110318431A1, “Pharmaceutical Compositions and Methods of Treating Neurological Insults” (ENDOGENX, priority 2008, published 2011).
Entries after “also recorded” stand apart in the source; their conditions may differ. Read-outs that look alike come from different tables or passages of the source.

Key:
[1] = cited from earlier work
[2] = Clinical study in patients with infarct: Glasgow outcome scale, Barthel Index, Modified Rankin Score; assay type: in vivo, human
[3] = cited from earlier work; remark: listed apart in the source
[4] = 16 mmol bolus and 65 mmol continuous infusion over 24 hrs; cited from earlier work
[5] = Evaluation of therapy for side effects of magnesium sulfate with and without mannitol treatment
Description: Safety—safety of subjects was maintained at all times. Adverse events and clinical laboratory data were obtained. Serious and non-serious adverse effects and clinical laboratory data were compared between groups.
Group 1. Magnesium sulfate 16 gm a day (4 vials each of 1 gm of magnesium sulfate mixed with 100 ml normal saline was infused 6 hourly for five days)
Group 3. Magnesium sulfate 8 gm a day plus mannitol (2 vials each of 1 gm of magnesium sulfate mixed with 50 ml normal saline was infused 6 hourly for five days; in addition 100 ml of 20% mannitol once a day with first dose of magnesium sulfate was administered)
Evaluation of therapy for side effects of magnesium sulfate with and without mannitol treatment

[6] = cited from earlier work; remark: listed apart in the source
[7] = magnesium therapy; cited from earlier work
[8] = end of 24 hour infusion, cited from earlier work
[9] = pediatric TBI patients; 50 mg/kg IV then 8.3 mg/kg/hour for 24 hours; cited from earlier work
[10] = cited from earlier work; remark: listed apart in the source
[11] = cited from earlier work; remark: listed apart in the source
[12] = at the end of three months; 4 g IV and 10 g IM within 12 hours of injury, then 5 g IM every 4 hours for 24 hours; cited from earlier work
[13] = cited from earlier work; remark: listed apart in the source
[14] = after one month of follow up; loading dose 16 mM then 6 mM/hour for 5 days IV; cited from earlier work
[15] = 283 patients with aneurysmal subarachnoid hemorrhage; cited from earlier work
[16] = number out of total 15 patients, magnesium sulfate 16 gm a day, five days

Compound: OC[C@@H](O)[C@@H](O)[C@H](O)[C@H](O)CO [mannitol, D-mannitol]
- Half life ([1]; humans with normal renal function): 1.2 h
- Osmolal gap corresponding to renal toxicity ([1]; humans): > 55 mosm/kg of water
- Serum mannitol concentration at which renal toxicity / acute renal failure occurs ([1]; humans): > 1000 mg/dL
- Half life ([1]; uremia patients): 36 h
- Effectiveness of mannitol compared to control ([2]; 100 ml 20% mannitol once a day for five days): not effective compared to control
- Glasgow outcome scale (GOS), Barthel Index (BI) and Modified Rankin Score (MRS), mannitol group versus control group ([2]; 100 ml 20% mannitol once a day for five days, day 1, day 5, day 15, day 30): similar
- Barthel Index (BI) and Modified Rankin Score (MRS), mannitol group compared to magnesium sulfate (8 gm) plus mannitol group ([2]; day 5, day 15, day 30): significantly higher
- Barthel Index (BI) and Modified Rankin Score (MRS), mannitol group compared to magnesium sulfate (16 gm) group ([2]; day 5, day 15, day 30): significantly higher
- Glasgow outcome scale (GOS), mannitol group compared to magnesium sulfate (8 gm) plus mannitol group ([2]; day 5, day 15, day 30): significantly lower
- Glasgow outcome scale (GOS), mannitol group compared to magnesium sulfate (16 gm) group ([2]; day 5, day 15, day 30): significantly lower
- Mortality with acute renal failure ([3]; massive mannitol infusion to 4 male adults): 2/4
- Onset of acute renal failure after infusion ([3]; massive mannitol infusion, Mean+SD): 48 ± 22 h

Compound: O=S(=O)([O-])[O-].[Mg+2] [magnesium sulfate]
- Mortality versus placebo [4]: slightly higher
- Primary outcome [4]: not improved
- Incidence of side effects, magnesium sulfate (16 gm) alone compared to magnesium sulfate (8 gm) plus mannitol ([5]; five days treatment): greater; also recorded: higher
- Constipation [5, 16]: 4
- Facial flushing [5, 16]: 8
- Heart block [5, 16]: 3
- Hypotension [5, 16]: 3
- Nausea [5, 16]: 5
- Paradoxical bradycardia [5, 16]: 3
- Respiratory distress [5, 16]: 2
- Patient outcome, magnesium sulfate (16 gm) group compared to mannitol group ([2]; magnesium sulfate 16 gm a day for five days): improved
- Effectiveness of magnesium sulfate (16 gm) versus magnesium sulfate (8 gm) plus mannitol ([2]; patients with cerebrovascular accidents): equally effective
- Patients with good functional outcome ([6]; at 3 months): 60%
- Patient status on hospital arrival rated improved ([6]; rated by paramedics, 10 mmol bolus and 64 mmol infusion over 24 hrs): 20%
- Patient status on hospital arrival rated unchanged ([6]; rated by paramedics): 75%
- Patient status on hospital arrival rated worsened ([6]; rated by paramedics): 5%

Compound: [Mg] [magnesium]
- Outcome at six months [7]: failed to provide a favorable outcome
- CSF ionized magnesium increase relative to baseline [8]: 11%
- CSF total magnesium increase relative to baseline [8]: 15%
- Serum magnesium concentrations relative to baseline ([8]; dose adjusted to serum 2.1-2.5 mM/L): doubled from baseline
- Adverse hemodynamic effects [9]: No adverse hemodynamic effects were observed
- Target serum concentrations achieved ([10]; 16 mmol loading infusion): 1.49 mmol/L
- Effects on heart rate, blood pressure, or blood glucose ([10]; loading dose 8, 12 or 16 mM followed by 65 mM infusion over 24 hours): no obvious effects
- Serum magnesium level ([11]; over 24 hours, 8 mmol over 15 minutes followed by 65 mmol over 24 hours IV, rose from 0.76 mM/L): 1.42 mM/L
- Blood pressure or adverse events versus placebo-treated patients ([11]; stroke patients): No differences
- Patients with favorable outcome including reduced mortality and intra-operative brain swelling [12]: 73%
- Composite primary outcome at 6 months post-injury ([13]; administration within 8 hours of moderate to severe TBI for 5 days, continuous infusion): did not show any beneficial effects
- Mortality ([13]; high dose of magnesium): Significantly higher mortality
- Composite score versus placebo ([13]; lower dose of magnesium): worse than the placebo treated patients
- Patient outcome, outcome scales (Orgogozo, Mathew, Rankin) [14]: significant positive effect
- Delayed cerebral ischemia and subsequent poor outcome [15]: reduced
